Results: patent publication US20200277571A1, “METHOD FOR AMPLIFYING CONE PHOTORECEPTORS OR ROD PHOTORECEPTORS USING DORSALIZATION SIGNAL TRANSMITTER OR VENTRALIZATION SIGNAL TRANSMITTER” (RIKEN, priority 2017, published 2020)

Tested on: S-opsin, M-opsin, L-opsin
Assay: Quantitative PCR of S-opsin, M-opsin, L-opsin after maturation culture in serum-free medium
Format: cell-based, human
Conditions: T3 added (0-8 nM) in serum-free DMEM/F12 after about day 190, not less than 30 days
Description: By a method similar to the methods described in Example 1 and Example 3, a cell aggregate containing a retinal tissue in a differentiation stage matured to the level that Muller cell was observed was prepared and culture was performed, in the serum-containing medium used, up to about day 190 to give a retinal tissue in a differentiation stage matured to the level that Muller cell was observed. Thereafter, by a method similar to the methods described in Example 11 and 12, further maturation was performed. That is, 0-1.35 nM BMP4 and 0-8 nM T3 were added to a medium obtained by adding 1% N2 supplement and 100 μM taurine but not adding 10% fetal calf serum to DMEM/F12 medium containing glutamic acid as a component, and culture was performed for not less than 30 days from the start of culture for further maturation. A cell aggregate containing a retinal tissue was recovered, quantitatively PCR was performed according to a conventional method, and the expression levels of S-opsin, M-opsin, L-opsin were confirmed. As a result, irrespective of the presence or absence of BMP4, the expression of S-opsin was promoted when T3 was absent.

Q: For `N[C@@H](Cc1cc(I)c(Oc2ccc(O)c(I)c2)c(I)c1)C(=O)O` [T3, triodo-I-thyronine], which “expression of S-opsin” value is on record?
A: suppressed
